Values quoted from earlier work in US10352931B2 (priority 2013, dated 2019).

Target: glutamate carboxypeptidase II (Homo sapiens, UniProt Q04609)
Details: examples of inhibitors, Table 1

Sequence of glutamate carboxypeptidase II (Q04609 whole entry, species assumed): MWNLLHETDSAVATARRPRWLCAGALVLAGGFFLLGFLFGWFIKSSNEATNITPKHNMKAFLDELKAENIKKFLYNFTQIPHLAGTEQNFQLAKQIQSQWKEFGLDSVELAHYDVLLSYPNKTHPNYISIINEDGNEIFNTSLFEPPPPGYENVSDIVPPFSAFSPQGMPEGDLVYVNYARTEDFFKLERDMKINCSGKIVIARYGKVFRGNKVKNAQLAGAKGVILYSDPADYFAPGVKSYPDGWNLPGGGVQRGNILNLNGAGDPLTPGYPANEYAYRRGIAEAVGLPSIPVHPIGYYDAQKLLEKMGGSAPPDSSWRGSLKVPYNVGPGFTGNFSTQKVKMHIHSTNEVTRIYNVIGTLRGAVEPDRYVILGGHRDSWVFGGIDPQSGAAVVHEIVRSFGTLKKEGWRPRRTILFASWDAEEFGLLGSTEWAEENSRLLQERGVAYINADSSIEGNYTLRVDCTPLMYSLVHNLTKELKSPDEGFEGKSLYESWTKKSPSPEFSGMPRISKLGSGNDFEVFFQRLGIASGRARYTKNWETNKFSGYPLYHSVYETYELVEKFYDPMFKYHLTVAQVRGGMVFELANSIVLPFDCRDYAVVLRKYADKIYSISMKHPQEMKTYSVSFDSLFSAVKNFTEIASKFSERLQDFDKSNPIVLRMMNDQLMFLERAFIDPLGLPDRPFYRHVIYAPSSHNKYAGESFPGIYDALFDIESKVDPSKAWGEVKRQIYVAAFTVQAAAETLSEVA

(S)-2-(hydroxypentafluorophenylmethyl-phosphinoylmethyl)pentanedioic acid
IC50: 34 nM
